Measurements reported in patent publication US20140031227A1, “HERBICIDAL COMPOSITIONS COMPRISING 4-AMINO-3-CHLORO-5-FLUORO-6-(4-CHLORO-2-FLUORO-3-METHOXYPHENYL) PYRIDINE-2-CARBOXYLIC ACID OR A DERIVATIVE THEREOF AND GLYPHOSATE OR GLUFOSINATE” (DOW AGROSCIENCES LLC, priority 2012, published 2014).
Where a name gives a salt, the structure may show the parent alone.

How the values were obtained:
Assay type in all cases: in vivo
[1] = test system: ECHCO (Echinochloa colona (L.) Link, junglerice); experiment: Example I postemergence foliar-applied mixtures, direct seeded rice weeds, greenhouse: ECHCO
Protocol: (§1) Seeds or nutlets of the desired test plant species were planted in a soil matrix prepared by mixing a loam or sandy loam soil (e.g., 28.6 percent silt, 18.8 percent clay, and 52.6 percent sand, with a pH of about 5.8 and an organic matter content of about 1.8 percent) and calcareous grit in an 80 to 20 ratio. The soil matrix was contained in plastic pots with a volume of 1 quart and a surface area of 83.6 square centimeters (cm^2). […] The plants were grown for 8-22 days in a greenhouse with an approximate 14 hr photoperiod which was maintained at about 29° C. during the day and 26° C. during the night. Nutrients (Peters Excel® 15-5-15 5-Ca 2-Mg and iron chelate) were applied in the irrigation solution as needed and water was added on a regular basis. Supplemental lighting was provided with overhead metal halide 1000-Watt lamps as necessary. The plants were employed for testing when they reached the first through fourth true leaf stage.
(§2) Treatments consisted of the acid or esters of 4-amino-3-chloro-5-fluoro-6-(4-chloro-2-fluoro-3-methoxy-phenyl)pyridine-2-carboxylic acid (Compound A), each formulated as an SC (suspension concentrate), and various herbicidal components alone and in combination. Forms of compound A were applied on an acid equivalent basis.
(§3) For treatments comprised of formulated compounds, measured amounts of compounds were placed individually in 25 mL glass vials and diluted in a volume of 1.25% (v/v) Agri-Dex® crop oil concentrated to obtain 12× stock solutions. […] Application solutions were prepared by adding an appropriate amount of each stock solution (e.g., 1 mL) and diluted to the appropriate final concentrations with the addition of 10 mL of an aqueous mixture of 1.25% (v/v) crop oil concentrate so that the final spray solutions contained 1.25+/−0.05% (v/v) crop oil concentrate.
(§4) All stock solutions and applications solutions were visually inspected for compound compatibility prior to application. Spray solutions were applied to the plant material with an overhead Mandel track sprayer equipped with a 8002E nozzles calibrated to deliver 187 L/ha over an application area of 0.503 m^2 at a spray height of 18 to 20 inches (46 to 50 cm) above average plant canopy height. Control plants were sprayed in the same manner with the solvent blank.
(§5) The treated plants and control plants were placed in a greenhouse as described above and watered by sub-irrigation to prevent wash-off of the test compounds. After approximately 3 weeks, the condition of the test plants as compared with that of the untreated plants was determined visually and scored on a scale of 0 to 100 percent where 0 corresponds to no injury or growth inhibition and 100 corresponds to complete kill.
(§6) Colby's equation was used to determine the herbicidal effects expected from the mixtures (Colby, S. R. 1967. Calculation of the synergistic and antagonistic response of herbicide combinations. Weeds 15:20-22.).

[2] = test system: ECHCG (Echinochloa crusgalli (L.) Beauv., barnyardgrass); experiment: Example I postemergence foliar-applied mixtures, direct seeded rice weeds, greenhouse: ECHCG; details: for Visual Weed Control (%) - 21 DAA ECHCG Obs: glyphosate IPA salt (Glyphomax) alone
Protocol: as §1, §2, §3, §4, §5, §6

[3] = test system: DIGSA (Digitaria sanguinalis (L.) Scop., large crabgrass); experiment: Example I postemergence foliar-applied mixtures, direct seeded rice weeds, greenhouse: DIGSA; details: glyphosate IPA salt (Durango) alone, 377 gae/ha
Protocol: as §1, §2, §3, §4, §5, §6

[4] = test system: LEFCH (Leptochloa chinensis (L.) Nees, Chinese sprangletop); experiment: Example I postemergence foliar-applied mixtures, direct seeded rice weeds, greenhouse: LEFCH
Protocol: as §1, §2, §3, §4, §5, §6

[5] = test system: IPOHE (Ipomoea hederacea Jacq., ivyleaf morningglory); experiment: Example I postemergence foliar-applied mixtures, direct seeded rice weeds, greenhouse: IPOHE; details: glyphosate IPA salt (Rodeo) alone
Protocol: as §1, §2, §3, §4, §5, §6

[6] = test system: SCPMA (Schoenoplectus maritimus (L.) Lye or Bolboschoenus maritimus (L.) Palla, sea clubrush); experiment: Example II in-water applied mixtures, transplanted paddy rice weeds, greenhouse: SCPMA; details: glyphosate IPA salt (Rodeo) alone
Protocol: Weed seeds or nutlets of the desired test plant species were planted in puddled soil (mud) prepared by mixing a shredded, non-sterilized mineral soil (50.5 percent silt, 25.5 percent clay, and 24 percent sand, with a pH of about 7.6 and an organic matter content of about 2.9 percent) and water at a 1:1 volumetric ratio. The prepared mud was dispensed in 365 mL aliquots into 16-ounce (oz.) non-perforated plastic pots with a surface area of 86.59 square centimeters (cm^2) leaving a headspace of 3 centimeters (cm) in each pot. Mud was allowed to dry overnight prior to planting or transplanting. Rice seeds were planted in Sun Gro MetroMix® 306 planting mixture, which typically has a pH of 6.0 to 6.8 and an organic matter content of about 30 percent, in plastic plug trays. Seedlings at the second or third leaf stage of growth were transplanted into 840 mL of mud contained in 32-oz. non-perforated plastic pots with a surface area of 86.59 cm^2 4 days prior to herbicide application. The paddy was created by filling the headspace of the pots with 2.5 to 3 cm of water. […] The plants were grown for 4-22 days in a greenhouse with an approximate 14 hr photoperiod which was maintained at about 29′C during the day and 26° C. during the night. Nutrients were added as Osmocote® (19:6:12, N:P:K+minor nutrients) at 2 g per 16-oz. pot and 4 g per 32-oz. pot. Water was added on a regular basis to maintain the paddy flood, and supplemental lighting was provided with overhead metal halide 1000-Watt lamps as necessary. The plants were employed for testing when they reached the first through fourth true leaf stage.
as §2, with “(compound A)” for “(Compound A),”, “concentrate)” for “concentrate),”
For formulated compounds, a measured amount was placed in an individual 100 or 200 mL glass vial and was dissolved in a volume of 1.25% (v/v) Agri-Dex® crop oil concentrate to obtain application solutions.
Applications were made by injecting with a pipetter appropriate amounts of the application solutions, individually and sequentially, into the aqueous layer of the paddy. Control plants were treated in the same manner with the solvent blank. Applications were made so that all treated plant material received the same concentrations of acetone and crop oil concentrate.
as §5, with “water was added as needed” for “watered by sub-irrigation”, “maintain a paddy flood.” for “prevent wash-off of the test compounds.”, “weeks” for “weeks,”
as §6

[7] = glyphosate IPA salt (Glyphomax) alone, 124.5 gae/ha
[8] = glyphosate IPA salt (Glyphomax) alone, 249 gae/ha
[9] = glyphosate IPA salt (Rodeo) alone, 105 gae/ha
[10] = glyphosate IPA salt (Rodeo) alone, 210 gae/ha
[11] = glyphosate IPA salt (Durango) alone, 377 gae/ha

## O=C(O)CNCP(=O)(O)O [Glyphosate isopropylamine salt, N-(phosphonomethyl)glycine, reference compound]
[1]; [7]
  Visual Weed Control (%) - 21 DAA ECHCO Obs: 10%
[1]; [8]
  Visual Weed Control (%) - 21 DAA ECHCO Obs: 20%
[1]; [9]
  Visual Weed Control (%) - 21 DAA ECHCO Obs: 0%
[1]; [10]
  Visual Weed Control (%) - 21 DAA ECHCO Obs: 0%
[2]; [11]
  Visual Weed Control (%) - 20 DAA ECHCG Obs: 38%
[2]; 124.5 gae/ha
  Visual Weed Control (%) - 21 DAA ECHCG Obs: 0%
[2]; 249 gae/ha
  Visual Weed Control (%) - 21 DAA ECHCG Obs: 0%
[3]
  Visual Weed Control (%) - 20 DAA DIGSA Obs: 10%
[4]; [11]
  Visual Weed Control (%) - 20 DAA LEFCH Obs: 88%
[4]; [7]
  Visual Weed Control (%) - 21 DAA LEFCH Obs: 0%
[4]; [8]
  Visual Weed Control (%) - 21 DAA LEFCH Obs: 45%
[4]; [9]
  Visual Weed Control (%) - 21 DAA LEFCH Obs: 25%
[4]; [10]
  Visual Weed Control (%) - 21 DAA LEFCH Obs: 75%
[4]; glyphosate IPA salt (Rodeo) alone, 420 gae/ha
  Visual Weed Control (%) - 21 DAA LEFCH Obs: 90%
[5]; 105 gae/ha
  Visual Weed Control (%) - 21 DAA IPOHE Obs: 15%
[5]; 210 gae/ha
  Visual Weed Control (%) - 21 DAA IPOHE Obs: 25%
[5]; 420 gae/ha
  Visual Weed Control (%) - 21 DAA IPOHE Obs: 55%
[6]; 210 gae/ha
  Visual Weed Control (%) - 21 DAA SCPMA Obs: 0%
[6]; 420 gae/ha
  Visual Weed Control (%) - 21 DAA SCPMA Obs: 0%
